Test results: patent publication US4072744A, “N^2 -naphthalenesulfonyl-L-argininamides and the pharmaceutically acceptable salts thereof” (Mitsubishi Chemical Industries Limited, priority 1974, dated 1978)

Test: acute toxicity (LD50) by intraperitoneal administration in mice
Conditions: mouse, in vivo, ip, mice (male, 20 g)
Excerpt: Representative LD50 values, for example, for N^2 -(5,6,7,8-tetrahydro-1-naphthalenesulfonyl)-N-methoxyethylglycine, N^2 -(7-methyl-2-naphthalenesulfonyl)-N-butylglycine and N^2 -(6,7-dimethyl-1-naphthalenesulfonyl)-N-methoxyethylglycine are above 1,500 milligrams per kilogram, respectively.
For `COCCN(CC(=O)O)C(=O)[C@H](CCCNC(=N)N)NS(=O)(=O)c1cccc2c1CCCC2` [Sample 3, N^2-(5,6,7,8-tetrahydro-1-naphthalenesulfonyl)-L-arginyl-N-methoxyethylglycine], the LD50 was > 1500 mg/kg.
For `CCCCN(CC(=O)O)C(=O)[C@H](CCCNC(=N)N)NS(=O)(=O)c1ccc2ccc(C)cc2c1` [Sample 14, N^2-(7-methyl-2-naphthalenesulfonyl)-L-arginyl-N-butylglycine], the LD50 was > 1500 mg/kg.
For `COCCN(CC(=O)O)C(=O)[C@H](CCCNC(=N)N)NS(=O)(=O)c1cccc2cc(C)c(C)cc12` [Sample 23, N^2-(6,7-dimethyl-1-naphthalenesulfonyl)-L-arginyl-N-methoxyethylglycine], the LD50 was > 1500 mg/kg.
